Reference: the OPERA property sets (Mansouri et al. 2018)

logP | Compound
-0.97 | O=c1nc(N=CN2CCOCC2)ccn1C1CCC(CO)O1 (stereo not given)
-0.95 | CN(C)C=Nc1ccn(C2CCC(CO)O2)c(=O)n1 (stereo not given)
0.23 | CCN(C=Nc1ccn(C2CC(F)C(CO)O2)c(=O)n1)CC (stereo not given)
1.35 | CCCN(C=Nc1ccn(C2CC(F)C(CO)O2)c(=O)n1)CCC (stereo not given)
0.72 | CC(C)N(C=Nc1ccn(C2CCC(CO)O2)c(=O)n1)C(C)C (stereo not given)
-0.47 | O=c1nc(N=CN2CCCC2)ccn1C1CCC(CO)O1 (stereo not given)
-0.16 | O=c1nc(N=CN2CCCC2)ccn1C1CC(F)C(CO)O1 (stereo not given)
-0.89 | Nc1ccn([C@H]2C[C@H](F)[C@@H](CO)O2)c(=O)n1

The remaining lines, values behind:

Compound | logP
CN(C)C=Nc1ccn(C2CC(F)C(CO)O2)c(=O)n1 (stereo not given) | -0.64
CCCN(/C=N/c1ccn([C@H]2CC[C@@H](CO)O2)c(=O)n1)CCC | 0.95
CC(C)N(C=Nc1ccn(C2CC(F)C(CO)O2)c(=O)n1)C(C)C (stereo not given) | 1.14
O=c1nc(/N=C/N2CCCCC2)ccn1[C@H]1CC[C@@H](CO)O1 | 0.06
O=c1nc(/N=C/N2CCCCC2)ccn1[C@H]1C[C@H](F)[C@@H](CO)O1 | 0.36
CCN(/C=N/c1ccn([C@H]2CC[C@@H](CO)O2)c(=O)n1)CC | -0.06
O=c1nc(N=CN2CCOCC2)ccn1C1CC(F)C(CO)O1 (stereo not given) | -0.68
